One compound from patent US20160250213A1, “FORMULATIONS OF AZAINDOLE COMPOUNDS” (priority 2013, published 2016) can be followed below.

For experiment [1], the system named is A/Cambodia/0371/2007 (H1N1). In words: microbe, parasite or virus in culture. The note with it: Influenza A virus, MDCK, read-out: Cell Protection Assay EC50 ± SD. Format: cell-based.
Experiment [2] relates to A/New York/18/2009 (H1N1). In words: microbe, parasite or virus in culture. The following applies: Influenza A virus, H1N1, MDCK; read-out: Cell Protection Assay EC50 ± SD. Format: cell-based.

For orientation: EC50 means the concentration that produces a half-maximal response. For `O=C(O)[C@H]1C2CCC(CC2)C1Nc1nc(-c2c[nH]c3ncc(F)cc23)ncc1F` (some centres unmarked) [Compound (1)], the EC50 amounted to 0.61 ± 0.33 nM in experiment [1] and 0.59 nM in experiment [2].
